tested on: Plasmodium falciparum; test: GSK_TCMDC: Inhibition of Plasmodium falciparum 3D7 in whole erythrocytes, using parasite LDH activity as an index of growth.; format: functional, organism-based; details: Plasmodium falciparum, 3D7

Row | SMILES | XC50 [nM]
1 | COc1cccc2c(N/N=C/c3cccc([N+](=O)[O-])c3)ccnc12 | 748
2 | CCN(CC)CCN(Cc1ccc(-c2ccc(C(F)(F)F)cc2)cc1)C(=O)Cn1c(CCc2cccc(F)c2F)nc(=O)c2ccc(C)cc21 | 668
3 | COc1cccc(-c2cccc(CNC3CCN(CC4Cn5c(=O)ccc6ccc(F)c4c65)CC3)c2)c1 (configuration not stated) | 934
4 | Cc1cc(N[C@@H](CC(C)C)C(=O)NCc2cccs2)nc(NCCc2cccs2)n1 | 1020
5 | CCCCCCc1cnc2nc(N)nc(N)c2c1C | 194
6 | COc1cc2nc(NCCc3ccccc3)nc(NCc3cnn(C)c3C)c2cc1OC | 711
7 | O=C(NCCNc1noc(-c2sccc2Br)n1)c1ccc(Cl)cc1 | 1170
8 | CC(C)[C@H](NCC(=O)c1ccccc1)C(=O)O | 783
9 | O=C(Nc1ccc(Br)cc1)c1cc(Br)ccc1NS(=O)(=O)c1cc(C(F)(F)F)cc(C(F)(F)F)c1 | 885
10 | CCCCNCC(O)COc1ccccc1-c1ccc(N/N=C/c2cccc3ccccc23)nn1 (configuration not stated) | 891
11 | COC(C(=O)OCCC1CCCN1C)(c1ccccc1)C1CCCCC1 (configuration not stated) | 711
12 | CCCc1cnc2nc(N)nc(N)c2c1C | 1120
13 | Cc1cc(N[C@@H](Cc2ccccc2)C(=O)NCCc2ccccc2)nc(NCCc2ccc(F)cc2)n1 | 661
14 | CN(Cc1ccc(NC(=O)CCC2CCN(C(=O)/C=C/c3ccc(Cl)c(Cl)c3)CC2)cc1)C1CCOCC1 | 1730
15 | Cc1nc(-c2cccc(C(=O)Nc3cnc4ccccc4c3)c2)no1 | 1160
16 | COc1ccc2nccc(N3CCC(CCNCc4cc5c(cn4)OCCO5)CC3)c2c1 | 874
17 | O=C(NC1CCC(N2CCN(c3cccc(C(F)(F)F)c3)CC2)CC1)c1cc2ccccc2[nH]1 (configuration not stated) | 723
18 | CCC(C)c1ccc(NC(=O)c2ccc(S(=O)(=O)Nc3ccc(OC)c(N4CCN(CC5CC5)CC4)c3)cc2)cc1 (configuration not stated) | 703
19 | Cc1ccc(C(=O)NC2C(=O)NC2c2ccccc2)c(C)c1 (configuration not stated) | 955
20 | FC(F)(F)Oc1cccc(CNc2noc(-c3sccc3Br)n2)c1 | 875
21 | COc1ccc(CN2CCCC(OC(c3ccc(F)cc3)c3ccc(F)cc3)C2)c(O)c1 (configuration not stated) | 607
22 | CC1CCCN1Cc1cccc(-c2ccc(C(=O)NCCOc3ccccc3)s2)c1 (configuration not stated) | 925
23 | O=C(Nc1ccccc1)NC1CCN(CCC2(c3ccc(Cl)c(Cl)c3)COCN(C(=O)c3ccccc3)C2)C1 (configuration not stated) | 880
24 | O=C(Nc1ccc(-c2nc3ccccc3[nH]2)cc1)c1ccc([N+](=O)[O-])s1 | 252

Row | SMILES | XC50 [nM]
25 | Cc1noc(-c2ccccc2)c1NC(=O)N1CCN(CCCCCCNC(=O)/C=C/c2ccc(Cl)c(Cl)c2)CC1 | 884
26 | O=C(/C=C/c1ccc(Cl)cc1)NCCCCCN1CCC(C(=O)Nc2cccc(Cl)c2)CC1 | 853
27 | Cc1nc(-c2cccc3c(NC(=O)Nc4ccc5nccc(N6CCN(C)CC6)c5c4)cccc23)no1 | 235
28 | O=C(/C=C/c1ccc(-c2nc3cc(F)c(F)cc3[nH]2)cc1)NCc1ccc(Cl)c(Cl)c1 | 938
29 | COc1ccc2nccc(N3CCC(CCNCc4ccc5c(n4)NC(=O)CO5)CC3)c2c1 | 705
30 | Cc1cccc(NC(=O)NC2CCN(CCCCCNC(=O)/C=C/c3ccc(Cl)c(Cl)c3)CC2)c1 | 753
31 | Cc1cc(F)ccc1-c1nc(NCCCN2CCCC2=O)nc2c1ccc(=O)n2-c1c(F)cccc1F | 1020
32 | NC(=O)c1ccc(C(=O)Nc2cccc(-c3csc(-c4nc5ccccc5[nH]4)c3)c2)cc1 | 351
33 | COc1ccc(CN2CCCN(Cc3cccc(NC(=O)c4ccc5ccccc5c4)c3)CC2)cc1 | 1000
34 | CCCc1ccc(NC(=O)c2ccc(CN3CCCN(Cc4cccc(O)c4)CC3)cc2)cc1 | 396
35 | O=C(Nc1ccnc2ccccc12)NC1CCN(CCc2ccccc2)CC1 | 364
36 | OCCN1CCN(Cc2ccc(-c3ccc(-c4nc5ccccc5[nH]4)cc3)cc2)CC1 | 616
37 | CC(C)c1ccc(OCCCON2C(=N)N=C(N)NC2(C)C)cc1 | 3.2
38 | CC(C)(C)C(Cn1ccnc1)NCc1c[nH]nc1-c1ccc(-c2ccccc2)cc1 (configuration not stated) | 1060
39 | Cc1nnc(-c2cccc(Nc3ccnc4cc(-c5nccs5)ccc34)c2)o1 | 632
40 | CC(C)CCNC(=O)c1cc(C(=O)c2cc(F)ccc2O)cn(CCC(C)C)c1=O | 753
41 | OC(CNc1ccnc(Nc2ccccc2)n1)c1cccc(C(F)(F)F)c1 (configuration not stated) | 646
42 | O=C(Nc1ccc(F)c(Cl)c1)NC1CCN(c2ccnc3cc(Cl)ccc23)C1 (configuration not stated) | 215
43 | COc1cccc(CNc2noc(-c3c(-c4ccccc4)noc3C)n2)c1OC | 875
44 | CC(CNCc1cn(Cc2cc(Br)cc(Br)c2)c2ccccc12)CNc1cc(=O)c2ccccc2[nH]1 (configuration not stated) | 464
45 | CS(=O)(=O)c1cccc(-c2cnc3[nH]cc(-c4ccc(CCC(=O)O)cc4)c3c2)c1 | 634
46 | CCOc1ccc2c(=NN=Cc3cccc(OC)c3)cc(C)[nH]c2c1 | 123
47 | CN1CCC(C(=O)Nc2cccc(-c3ccc(-c4nc5cc(C(F)(F)F)ccc5[nH]4)s3)c2)CC1 | 724
48 | CC(=O)C1=NN(c2ccc(Cl)cc2)C(c2cccs2)N1c1ccccc1 (configuration not stated) | 397

Row | SMILES | XC50 [nM]
49 | O=C(Nc1ccc2c(c1)CCC2)c1cccc(N2CCN(c3ccncc3)CC2)c1 | 971
50 | CC(C)N(CC(=O)c1ccc(O)c(C(=O)O)c1)Cc1ccccc1 | 187
51 | CCOc1cc(C(C)C)ccc1N1CCN(CCCCNC(=O)c2ccc(NC(=O)c3ccc(Cl)cc3)cc2)CC1 | 416
52 | Cc1cccc2nc(-c3ccc(-c4cccc(CNCc5ccccc5)c4)cc3)[nH]c12 | 246
53 | COc1ccc(CNC2CCN(C)CC2)cc1-c1ccc(S(=O)(=O)NCCc2ccccn2)s1 | 624
54 | CCc1cn2c3c(cc(C(=O)N[C@@H](Cc4cc(F)cc(F)c4)[C@H](O)CNC4CCCCC4)cc13)N(C)S(=O)(=O)CC2 | 34.5
55 | Cc1cc(-c2ccc(NC(=O)Nc3ccc4nccc(N5CCN(C)CC5)c4c3)cc2C)cc(C)n1 | 153
56 | O=C(CNCC1CCCCC1)Nc1cc(C(F)(F)F)ccc1Cl | 982
57 | Cc1cccc(NC(=O)Nc2ccc(I)c(OCCN(C)C)c2)c1C | 725
58 | CNC(=S)NCc1cnc2ccccn12 | 195
59 | CC(CN(C)C)C(=O)Nc1ccc(-c2ccc(-c3nc4ccccc4[nH]3)cc2)cc1 (configuration not stated) | 741
60 | COc1cc(Cc2cnc(N)nc2N)cc(OC)c1OCCCCCN1C(=O)c2ccccc2C1=O | 618
61 | COc1cccc(-c2ccc3c(-c4cccc(NC(C)=O)c4)cnc(N)c3c2)c1 | 106
62 | CCCCCNc1ccnc2cc(Cl)ccc12 | 509
63 | COc1ccccc1C1CN(Cc2coc3ccccc3c2=O)Cc2ccccc2O1 (configuration not stated) | 1320
64 | COc1ccc(N2CCN(CCCCNC(=O)c3ccc(NC(=O)c4cccc(Cl)c4)cc3)CC2)c(OC)c1 | 911
65 | COc1ccc2nccc([C@@H](O)CN3CCC(NCc4ccc5nsnc5c4)CC3)c2c1 | 958
66 | COc1ccc(Nc2ncc3c(-c4cccc(NC(=O)Cc5cccc(O)c5)c4)c[nH]c3n2)cc1OC | 698
67 | CC(Cc1ccc(OCCCCOc2ccccc2)cc1)NCCCN1CCOCC1 (configuration not stated) | 725
68 | CC(=O)Nc1ccc(NC(=O)c2cc(-c3ccc(C)cc3O)n[nH]2)cc1 | 490
69 | O=c1cc(N2CCCNCC2)c(Cl)nn1Cc1ccc(NS(=O)(=O)c2ccc(Oc3ccccc3)cc2)cc1 | 800
70 | Cn1cncc1CNCc1ccc(-c2cccc(-c3nc4ccccc4[nH]3)c2)cc1 | 234
71 | CCC(C)NC(=O)CN1CN(c2ccccc2)C2(CCN(C(=O)c3ccc(C(C)(C)C)cc3)CC2)C1=O (configuration not stated) | 125
72 | Cc1noc(C)c1-c1cccc(CNCc2ccc(-c3cccc(-c4nc5cccc(C)c5[nH]4)c3)cc2)c1 | 215
